Results on 15 compounds are retold here after PubChem BioAssay AID2060331 (Molecular Pharmacology Branch, DTP, NCI, 2025).

Usually viability, T/C stands for the result in the treated group divided by that in the control group, in per cent. Broadly, the IC50 is the midpoint of a concentration-inhibition curve.

Values joined by “and” are separate entries in the source; they are usually repeats but may differ in a detail not shown here. Equal entries are not always repeated.

The test system of one assay is Hs578T multi-cell spheroids, viability. Description: Anticancer human tumor Hs578T cell line growth inhibition [IpAb].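 Note: drug exposure lasted 7 days before readout.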 As to conditions: compound 0.316 µM; stronger effect = lower value. The source says:
Combinatorial screen of targeted agents with ipatasertib and abemaciclib in multi-cell type tumor spheroids
A high-throughput screen of multi-cell type tumor spheroids was designed to identify active combinations of targeted small molecules and ipatasertib or abemaciclib. Complex spheroids include a stromal component modeled by human endothelial cells (HUVEC) and fibroblasts modeled by human mesenchymal stem cells (MSCs). The concentration ranges selected for each drug and investigational agent were based upon clinically achievable concentrations if the clinical Cmax of the agent was known.
Compounds. The drugs and investigational agents: ipatasertib (NSC767898), abemaciclib(NSC768073), selumetinib (NSC741078), trametinib (758246), adavosertib (NSC754352), everolimus (NSC733504), sapanisertib (NSC764658), vemurafenib (NSC761431), venetoclax (NSC766270), copanlisib (NSC809693), apelisib (NSC765974), palbociblib (NSC758247), vemurafenib (NSC761431), dabrafenib (NSC764134), ravoxertinib (NSC781343), BMS-387032 (NSC767048), sotorasib (NSC818433), talazoparib (NSC767125) and afursertib (NSC778305), were obtained from the National Cancer Institute (NCI) Developmental Therapeutics Program Chemical Repository. The FDA-approved anticancer drug set is available from the NCI Developmental Therapeutics Program. […] The stock solutions were prepared in dimethyl sulfoxide (DMSO, Sigma-Aldrich, St. Louis, MO, cat. D2650) at 800-fold the tested concentration and stored at -70 degrees C prior to their use. All drugs and investigational agents were tested over a range starting from a high concentration at or near the clinical Cmax and decreasing in half-log increments. If the clinical Cmax for an agent had not been determined, the highest concentration tested was 10 microM.
NCI60 Cell Culture. NCI60 cell lines were obtained from the NCI Developmental Therapeutics Program Tumor Repository. For each lot of cells, the Repository performed Applied Biosystems AmpFLSTR Identifiler testing with PCR amplification to confirm consistency with the published Identifier STR profile for each cell line. Cells were kept in continuous culture for no more than 20 passages. The optimal seeding densities for each of the cell lines at each time point assessed were determined prior to performing the concentration response studies. Briefly, the NCI60 human tumor lines were grown as monolayers in RPMI 1640 medium supplemented with 10% FBS and 2 mmol/L L-glutamine.
An additional 9 lines were from the NCI60 cell line panel including MDA-MB-231 breast carcinoma, MDA-MB-468 breast carcinoma, MCF7 breast carcinoma, Hs578T breast carcinoma, MALME-3M melanoma, SK-MEL-2 melanoma, SK-OV-3 ovarian carcinoma, DU-145 prostate carcinoma, PC-3 prostate carcinoma, all cell lines along with major genetic alterations are listed on Table 2. Pooled donor human umbilical vein endothelial cells (HUVEC, Lonza, cat. CC-2519) and human mesenchymal stem cells (hMSC, Lonza, cat. PT-2501) were purchased from Lonza (Walkersville, MD).
PDMR cell lines were grown in complete medium (DC medium): Dulbecco's modified Eagle's medium (DMEM)/F12 supplemented with 5% fetal bovine serum (FBS), 2 mM L-glutamine, 100 U/mL penicillin and 100 µg/ml streptomycin, 0.4 µg/ml hydrocortisone, 10 ng/ml epidermal growth factor (EGF) recombinant human protein, 24 µg/mL adenine, and 0.1 mg/mL primocin. During culture from frozen stock vials, PDMR cells were cultured in the same medium containing 10 µM Y-27632 (see Table 3). The PDCs were cultured in complete DMEM/F12 media without 10 microM Y-27632 dihydrochloride for at least two passages prior to the screen. The pooled donor HUVEC and hMSC were cultured in endothelial cell growth medium 2 (PromoCell, Heidelberg, Germany, cat. C-22011) and mesenchymal stem cell growth medium 2 (PromoCell, cat. C-28009), respectively. For all experiments, HUVEC and hMSC were used at passages </=5.
[…]
On to `CC1(C)CCC(CN2CCN(c3ccc(C(=O)NS(=O)(=O)c4ccc(NCC5CCOCC5)c([N+](=O)[O-])c4)c(Oc4cnc5[nH]ccc5c4)c3)CC2)=C(c2ccc(Cl)cc2)C1`, for which the viability, T/C is 99.5% and 102%.

As to `CCCS(=O)(=O)Nc1ccc(F)c(C(=O)c2c[nH]c3ncc(-c4ccc(Cl)cc4)cc23)c1F`, the viability, T/C was 109% and 105%.

For the compound `CCN1CCN(Cc2ccc(Nc3ncc(F)c(-c4cc(F)c5nc(C)n(C(C)C)c5c4)n3)nc2)CC1`, the viability, T/C is 83.3% [middle of 13 runs].

Turning to `COc1c(OCCCN2CCOCC2)ccc2c3n(c(=NC(=O)c4cnc(N)nc4)nc12)CCN3`, the viability, T/C was 14.3% and 13.7%.

For the compound `Cc1nc(NC(=O)N2CCCC2C(N)=O)sc1-c1ccnc(C(C)(C)C(F)(F)F)c1` (stereo unspecified), the viability, T/C is 79.6% and 79.2%.

On to `Cn1ncc(Cl)c1-c1cc(C(=O)NC(CN)Cc2cccc(F)c2)sc1Cl` (stereo unspecified), for which the viability, T/C was 72.4% and 75.8%.

With `Cn1nccc1Nc1nccc(-c2ccn(C(CO)c3ccc(Cl)c(F)c3)c(=O)c2)n1` (stereo unspecified), the viability, T/C was 118% and 128%.

Still in this assay, the particulars now being: compound 0.949 µM; stronger effect = lower value.
Consider `CC(C)(C)c1cnc(CSc2cnc(NC(=O)C3CCNCC3)s2)o1`, for which the viability, T/C is 2.73% and 3.15%.

Take `Cn1cnc2c(F)c(Nc3ccc(Br)cc3Cl)c(C(=O)NOCCO)cc21`: the viability, T/C is 79.1% and 75%.

Staying with this assay, now noted: compound 1 µM; stronger effect = lower value.
`C=CC(=O)N1CCN(c2nc(=O)n(-c3c(C)ccnc3C(C)C)c3nc(-c4c(O)cccc4F)c(F)cc23)C(C)C1` (stereo unspecified): the viability, T/C is 108% and 111%.

Take `C=CCn1c(=O)c2cnc(Nc3ccc(N4CCN(C)CC4)cc3)nc2n1-c1cccc(C(C)(C)O)n1`: the viability, T/C was 26% and 25.8%.

Take `CC(C)NCC(C(=O)N1CCN(c2ncnc3c2C(C)CC3O)CC1)c1ccc(Cl)cc1` (stereo unspecified): the viability, T/C is 66.8% [middle of 13 runs].

With `CC1(C)CCC(CN2CCN(c3ccc(C(=O)NS(=O)(=O)c4ccc(NCC5CCOCC5)c([N+](=O)[O-])c4)c(Oc4cnc5[nH]ccc5c4)c3)CC2)=C(c2ccc(Cl)cc2)C1`, the viability, T/C is 104%.

Take `CCCS(=O)(=O)Nc1ccc(F)c(C(=O)c2c[nH]c3ncc(-c4ccc(Cl)cc4)cc23)c1F`: the viability, T/C was 96.1% and 102%.

Regarding `CCN1CCN(Cc2ccc(Nc3ncc(F)c(-c4cc(F)c5nc(C)n(C(C)C)c5c4)n3)nc2)CC1`, the viability, T/C was 94.2% [middle of 13 runs].

In the case of `COc1c(OCCCN2CCOCC2)ccc2c3n(c(=NC(=O)c4cnc(N)nc4)nc12)CCN3`, the viability, T/C is 8.6% and 5.54%.

Regarding `Cc1nc(NC(=O)N2CCCC2C(N)=O)sc1-c1ccnc(C(C)(C)C(F)(F)F)c1` (stereo unspecified), the viability, T/C is 60% and 58.8%.

In the case of `Cn1ncc(Cl)c1-c1cc(C(=O)NC(CN)Cc2cccc(F)c2)sc1Cl` (stereo unspecified), the viability, T/C was 60.7% and 63.9%.

As to `Cn1nccc1Nc1nccc(-c2ccn(C(CO)c3ccc(Cl)c(F)c3)c(=O)c2)n1` (stereo unspecified), the viability, T/C was 90.7% and 94%.

The same assay, now with this note: compound 3 µM; stronger effect = lower value.
Consider `CC(C)(C)c1cnc(CSc2cnc(NC(=O)C3CCNCC3)s2)o1`, for which the viability, T/C is 2.69% and 3.46%.

`Cn1cnc2c(F)c(Nc3ccc(Br)cc3Cl)c(C(=O)NOCCO)cc21`: the viability, T/C is 56.1% and 48.7%.

Still in this assay, the particulars now being: compound 3.16 µM; stronger effect = lower value.
On to `C=CC(=O)N1CCN(c2nc(=O)n(-c3c(C)ccnc3C(C)C)c3nc(-c4c(O)cccc4F)c(F)cc23)C(C)C1` (stereo unspecified), for which the viability, T/C is 106% and 95.6%.

On to `C=CCn1c(=O)c2cnc(Nc3ccc(N4CCN(C)CC4)cc3)nc2n1-c1cccc(C(C)(C)O)n1`, for which the viability, T/C is 15.1% and 19.1%.

`CC(C)NCC(C(=O)N1CCN(c2ncnc3c2C(C)CC3O)CC1)c1ccc(Cl)cc1` (stereo unspecified): the viability, T/C is 53.8% [middle of 12 runs].

For the compound `CC1(C)CCC(CN2CCN(c3ccc(C(=O)NS(=O)(=O)c4ccc(NCC5CCOCC5)c([N+](=O)[O-])c4)c(Oc4cnc5[nH]ccc5c4)c3)CC2)=C(c2ccc(Cl)cc2)C1`, the viability, T/C is 89.2% and 92.6%.

On to `CCCS(=O)(=O)Nc1ccc(F)c(C(=O)c2c[nH]c3ncc(-c4ccc(Cl)cc4)cc23)c1F`, for which the viability, T/C is 81.1% and 85.8%.

As to `Cc1nc(NC(=O)N2CCCC2C(N)=O)sc1-c1ccnc(C(C)(C)C(F)(F)F)c1` (stereo unspecified), the viability, T/C was 42.5% and 45.5%.

Take `Cn1ncc(Cl)c1-c1cc(C(=O)NC(CN)Cc2cccc(F)c2)sc1Cl` (stereo unspecified): the viability, T/C is 49.9% and 56.1%.

Consider `Cn1nccc1Nc1nccc(-c2ccn(C(CO)c3ccc(Cl)c(F)c3)c(=O)c2)n1` (stereo unspecified), for which the viability, T/C was 70.3% and 65.2%.

Still in this assay, the particulars now being: compound 10 µM; stronger effect = lower value.
For the compound `C=CC(=O)N1CCN(c2nc(=O)n(-c3c(C)ccnc3C(C)C)c3nc(-c4c(O)cccc4F)c(F)cc23)C(C)C1` (stereo unspecified), the viability, T/C was 73.4% and 68.4%.

For the compound `C=CCn1c(=O)c2cnc(Nc3ccc(N4CCN(C)CC4)cc3)nc2n1-c1cccc(C(C)(C)O)n1`, the viability, T/C was 17.7% and 17.6%.

Take `CC(C)NCC(C(=O)N1CCN(c2ncnc3c2C(C)CC3O)CC1)c1ccc(Cl)cc1` (stereo unspecified): the viability, T/C is 45% [middle of 13 runs].

As to `CC1(C)CCC(CN2CCN(c3ccc(C(=O)NS(=O)(=O)c4ccc(NCC5CCOCC5)c([N+](=O)[O-])c4)c(Oc4cnc5[nH]ccc5c4)c3)CC2)=C(c2ccc(Cl)cc2)C1`, the viability, T/C was 17% and 19%.

Turning to `CCCS(=O)(=O)Nc1ccc(F)c(C(=O)c2c[nH]c3ncc(-c4ccc(Cl)cc4)cc23)c1F`, the viability, T/C is 12.5% and 11.4%.

As for `Cc1nc(NC(=O)N2CCCC2C(N)=O)sc1-c1ccnc(C(C)(C)C(F)(F)F)c1` (stereo unspecified), the viability, T/C is 13.9% and 16.4%.

For `Cn1ncc(Cl)c1-c1cc(C(=O)NC(CN)Cc2cccc(F)c2)sc1Cl` (stereo unspecified), the viability, T/C was 0.22% and 0.31%.

As to `Cn1nccc1Nc1nccc(-c2ccn(C(CO)c3ccc(Cl)c(F)c3)c(=O)c2)n1` (stereo unspecified), the viability, T/C is 24.4% and 35.9%.

Staying with this assay, now noted: compound alone; run of 06/01/2021.
Turning to `CCN1CCN(Cc2ccc(Nc3ncc(F)c(-c4cc(F)c5nc(C)n(C(C)C)c5c4)n3)nc2)CC1`, the half-maximal inhibitory concentration (IC50) is greater than 1000 nM.

The assay is the same for the next values; noted with them: curve of compound.
On to `C=CC(=O)N1CCN(c2nc(=O)n(-c3c(C)ccnc3C(C)C)c3nc(-c4c(O)cccc4F)c(F)cc23)C(C)C1` (stereo unspecified), for which the IC50 is greater than 10000 nM.

Take `C=CCn1c(=O)c2cnc(Nc3ccc(N4CCN(C)CC4)cc3)nc2n1-c1cccc(C(C)(C)O)n1`: the IC50 was 275 nM and 295 nM.

As to `CC(=O)c1c(C)c2cnc(Nc3ccc(N4CCNCC4)cn3)nc2n(C2CCCC2)c1=O`, the 50% inhibitory concentration (IC50) was greater than 300 nM.

As for `CC(C)(C)c1cnc(CSc2cnc(NC(=O)C3CCNCC3)s2)o1`, the IC50 is 184 nM and 178 nM.

For the compound `CC(C)n1nc(-c2ccc3oc(N)nc3c2)c2c(N)ncnc21`, the IC50 was 7.72 nM and 9.02 nM.

For `CC1(C)CCC(CN2CCN(c3ccc(C(=O)NS(=O)(=O)c4ccc(NCC5CCOCC5)c([N+](=O)[O-])c4)c(Oc4cnc5[nH]ccc5c4)c3)CC2)=C(c2ccc(Cl)cc2)C1`, the IC50 was 5910 nM and 6160 nM.

As to `CCCS(=O)(=O)Nc1ccc(F)c(C(=O)c2c[nH]c3ncc(-c4ccc(Cl)cc4)cc23)c1F`, the half-maximal inhibitory concentration (IC50) was 5310 nM and 5510 nM.

As for `COc1c(OCCCN2CCOCC2)ccc2c3n(c(=NC(=O)c4cnc(N)nc4)nc12)CCN3`, the concentration for half-maximal inhibition (IC50) is 26 nM and 31.8 nM.

With `Cc1nc(NC(=O)N2CCCC2C(N)=O)sc1-c1ccnc(C(C)(C)C(F)(F)F)c1` (stereo unspecified), the half-inhibitory concentration (IC50) is 1930 nM and 1900 nM.

In the case of `Cn1cnc2c(F)c(Nc3ccc(Br)cc3Cl)c(C(=O)NOCCO)cc21`, the 50% inhibitory concentration (IC50) was > 3000 nM and 2850 nM.

Consider `Cn1ncc(Cl)c1-c1cc(C(=O)NC(CN)Cc2cccc(F)c2)sc1Cl` (stereo unspecified), for which the IC50 was 2180 nM and 2650 nM.

For `Cn1nccc1Nc1nccc(-c2ccn(C(CO)c3ccc(Cl)c(F)c3)c(=O)c2)n1` (stereo unspecified), the IC50 was 5130 nM and 5580 nM.

For `Cn1ncnc1[C@H]1c2n[nH]c(=O)c3cc(F)cc(c23)N[C@@H]1c1ccc(F)cc1`, the IC50 was greater than 100 nM.
